The results in this text go back to patent US20070027184A1, “Multicyclic sulfonamide compounds as inhibitors of histone deacetylase for the treatment of disease” (KALYPSYS, INC., priority 2005, published 2007).

For orientation: T/C means the ratio of treated to control. One may read the IC50 as the concentration needed to halve the response being measured. The low end stands for greater potency, the high end for weaker potency.

Read-outs that look alike come from different tables or passages of the source.

One data set can be described thus: in vivo. The following applies: female, mouse, in vivo. Here is the method:
(§1) 5×10^6 HCT-116 colorectal cancer cells were injected subcutaneously into the right flank of 4-6 week old female nude (nu/nu) mice. […] Tumor burden was determined twice weekly by measurement with calipers in 2-dimensions (length (l)×width (w)) and the volume of spheroid calculated using the formula (l×(w)^2/2). Bodyweight was measured and recorded on same day as tumor volume measurement.

Data set [1] deals with HCT-116 colorectal cancer cells. The data set can be described thus: in vivo. The note with it: for T/C value for efficacy at MTD: daily oral gavage. Here is the method:
as §1

A further data set deals with HDAC. The data set can be described thus: In vitro HDAC-inhibition assay (Fluor de Lys). The class given is biochemical. On the procedure:
This assay measures a compound's ability to inhibit acetyl-lysine deacetylation in vitro and was used as both a primary screening method as well as for IC50 determinations of confirmed inhibitors. The assay is performed in vitro using an HDAC enzyme source (e.g. partially purified nuclear extract or immunopurified HDAC complexes) and a proprietary fluorescent substrate/developer system (HDAC Quantizyme Fluor de Lys Fluorescent Activity Assay, BIOMOL). The assay is run in 1,536-well Greiner white-bottom plates using the following volumes and order of addition:
Step 1: Enzyme (2.5 ul) source added to plate (from refrigerated container)
Step 2: Compounds (50 nl) added with pin transfer device
Step 3: Fluor de Lys (2.5 ul) substrate added, incubate at RT, 30 minutes
Step 4: Developer (5 ul) solution is added (containing TSA), to stop reaction
Step 5: Plate Reader—data collection
The deacetylated fluorophore is excited with 360 nm light and the emitted light (460 nm) is detected on an automated fluorometric plate reader (Aquest, Molecular Devices).

The next data set deals with HDAC in cells. Briefly: Cellular IC50 (cellular histone hyperacetylation / differential cytotoxicity assays). The class given is cell-based. On the procedure: These two secondary assays evaluates a compound's ability to inhibit HDAC in cells by measuring cellular histone acetylation levels. The cytoblot facilitates quantitative EC50 information for cellular HDAC inhibition. Transformed cell lines (e.g. HeLa, A549, MCF-7) are cultured under standard media and culture conditions prior to plating.
Cells (approx. 2,500/well) are allowed to adhere 10-24 hours to wells of a 384-well Greiner PS assay plate in media containing 1-5% serum. Cells are treated with appropriate compound and specific concentrations for 0 to 24 hours. Cells are washed once with PBS (60 ul) and then fixed (95% ethanol, 5% acetic acid or 2% PFA) for 1 minute at RT (30 ul). Cells are blocked with 1% BSA for 1 hour and washed and stained with antibody (e.g. anti-Acetylated Histone H3, Upstate Biotechnology), followed by washing and incubation with an appropriate secondary antibody conjugated to HRP or fluorophore. For luminescence assays, signal is generated using Luminol substrate (Santa Cruz Biotechnology) and detected using an Aquest plate reader (Molecular Devices).
HDAC inhibitors display differential cytotoxicity toward certain transformed cell lines. Cells are cultured according to standard ATCC recommended conditions that are appropriate to each cell type. Compounds were tested for their ability to kill different cell types (normal and transformed) using the ATPlite luminescence ATP detection assay system (Perkin Elmer). Assays are run in either 384-well or 1536-well Greiner PS plates. Cells (30 ul or 5 ul, respectively) are dispensed using either multichannel pipette for 384-well plates, or proprietary Kalypsys bulk liquid dispenser for 1536-well plates. Compounds added using proprietary pin-transfer device (500 nL or 5 nL) and incubated 5 to 30 hours prior to analysis. Luminescence is measured using Aquest plate reader (Molecular Devices).

[2] abbreviates: 50 mg/kg QD orally, data from another study.

In the case of `CC(=O)SCC(=O)c1ccc(NS(=O)(=O)c2ccc3c(c2)OCCO3)nc1` [Example 1], the MTD in “in vivo” (daily oral gavage, highest dose without lethality or ≧20% bodyweight loss, read-out: Maximum tolerated dose (MTD)) is < 100 mg/kg. For the same compound, the Survival in data set [1] (setting [2]) was 10/10; in data set [1] (100 mg/kg QD orally), 8/10; in data set [1] (125 mg/kg QD orally), 7/10; in data set [1] (175 mg/kg QD orally), 0/10; in data set [1] (250 mg/kg QD orally) it was 2/10. Also, the T/C is on record as 53% in data set [1] (setting [2]); 42% in data set [1] (100 mg/kg QD orally); 29% in data set [1] (125 mg/kg QD orally); 11% in data set [1] (175 mg/kg QD orally); 15% in data set [1] (250 mg/kg QD orally). Besides, the “Tolerability (weight loss, mortality)” value in data set [1] (50 mg/kg, determined previously) is on record as “well tolerated”. In addition, the “T/C value for efficacy at MTD” value in data set [1] was 53%. The IC50 in the data set with HDAC and in the data set on HDAC in cells was ≤ 1000 nM each time.

`O=C(CCCCCCC(=O)Nc1ccccc1)NO` [SAHA, reference compound] yielded an MTD in the data set “in vivo” (nude (nu/nu), po) of 250 mg/kg. The T/C in data set [1] (setting [2]) was 59%; in data set [1] (100 mg/kg QD orally) it was 65%; in data set [1] (125 mg/kg QD orally) it was 73%; in data set [1] (175 mg/kg QD orally), 41%; in data set [1] (250 mg/kg QD orally), 52%; in data set [1] (350 mg/kg QD orally) it was 24%. The compound further yielded a T/C in data set [1] (475 mg/kg QD orally) of 21%. The Lethality entry in data set [1] (350 mg/kg daily oral gavage) was “lethality was observed”. For the same compound, the “T/C value for efficacy at MTD” value in data set [1] stood at 52%.
